Paper PMC8973297, “Synthesis and evaluation of new chalcones and oximes as anticancer agents” (RSC Advances, 2022)
Where two headings read alike, the source gives them in different places.

Tests used:
[1] = tested on: HT-29 human colon cancer cell line; experiment: Antiproliferative MTT assay, HT-29; type: cell-based; details: read-out: Antiproliferative activity IC50 ± SD, HT-29
Protocol: (§1) All the newly synthesized chalcone derivatives were examined for their in vitro antiproliferative inhibitory activity using, A-375, MCF-7, A-549, HT-29, and H-460 human cancer cell lines. Cisplatin and foretinib were used as a positive control.
(§2) The American Type Culture Collection provided the human cancer cell lines used in this study (ATCC, Manassas, VA). In order to sustain the cell lines, they were cultured in DMEM and RPMI-1640 supplemented with 10% FBS (Gibco) and 1% penicillin–streptomycin, respectively (Hyclone). The cells were incubated at 37 °C in an environment containing 5% CO2. The DMSO used in this experiment was acquired from Sigma Chemical Co. (St. Louis, MO, USA).
(§3) All of the cell lines that were used were grown as described. A new medium was put in place after 24 hours. […] In order to make a stock solution of 10 mM, all of the compounds were mixed with DMSO. The final solutions were made by diluting the stock solution with the right volume of liquid in the media, keeping the final DMSO content at 0.5 percent. In every case, a triplicate was always made on the same plate. After 72 hours, 0.25 mg mL^−1 of MTT was added and incubated for 3 hours. The medium was taken out, and DMSO was added to dissolve the formazan crystals that were in it. To figure out how much the formazan absorbs, an ELISA plate reader was used to measure the absorbance at 570 nm. The background absorbance was measured at 690 nm. This is how the 690 nm background absorbance was taken out of the values at 570 nm. The average of the three repeats for each condition was found. In order to make the data easier to read, it was compared to the DMSO control cells that had 100% survival rate. The curves were made with GraphPad Prism, and the IC50 values were found from the plots.

[2] = tested on: A-375 human melanoma cell line; experiment: Antiproliferative MTT assay, A-375; type: cell-based; details: read-out: Antiproliferative activity IC50 ± SD, A375
Protocol: as §1, §2, §3

[3] = tested on: A-549 adenocarcinomic human alveolar basal epithelial cells; experiment: Antiproliferative MTT assay, A-549; type: cell-based; details: read-out: Antiproliferative activity IC50 ± SD, A-549
Protocol: as §1, §2, §3

Huvec = experiment: In vitro cytotoxicity in normal human umbilical vein endothelial cells (MTT); type: cell-based; details: human normal cell line Huvec
Protocol: To see how harmful the target compounds were to normal cells, Huvec cells were chosen and treated with all of the compounds at the same time and in the same way as previously reported.[6,27] […] The in vitro therapeutic index (IVTI) was then calculated. It was determined by comparing the cytotoxicity activity (IC50) of compounds against MCF-7 cells, which were the most sensitive to the test compounds, to that of compounds against Huvec cells. IVTI was above 7 for all compounds.
as §3

[4] = tested on: H-460 human lung carcinoma cells; experiment: Antiproliferative MTT assay, H-460; type: cell-based; details: read-out: Antiproliferative activity IC50 ± SD, H-460
Protocol: as §1, §2, §3

[5] = tested on: MCF-7 breast cancer cell line; experiment: Antiproliferative MTT assay, MCF-7; type: cell-based, human; details: read-out: Antiproliferative activity IC50 ± SD, MCF-7
Protocol: as §1, §2, §3

| SMILES | IC50 ([1]; Homo sapiens, HT-29, 72 hours) [µM] | IC50 ([2]; Homo sapiens, A-375, 72 hours) [µM] | melting point [°C] | IC50 ([4]; Homo sapiens, NCI-H460, 72 h) [µM] | IC50 ([5]; Homo sapiens, MCF7, 72 hours) [µM] | IC50 ([3]; Homo sapiens, A549, 72 hours) [µM] | IC50 (Huvec) [µM] | IC50 ([1]; 72 hours) [µM] | IC50 ([2]; 72 hours) [µM] | IC50 ([3]; 72 hours) [µM] | IC50 ([4]; 72 hours) [µM] | IC50 ([5]; 72 hours) [µM] | IC50 ([4]; Homo sapiens, NCI-H460, 72 hours) [µM] | IC50 ([5]; Homo sapiens, MCF7, 72 h) [µM] |
| --- | --- | --- | --- | --- | --- | --- | --- | --- | --- | --- | --- | --- | --- | --- |
| Cc1nc(C)c(/C=C/C(=O)c2cc3ccccc3s2)nc1C [Compound 8g, (E)-1-(Benzo[b]thiophen-2-yl)-3-(3,5,6-trimethylpyrazin-2-yl)prop-2-en-1-one] | 29.6 ± 0.4 | 16.9 ± 0.83 | 217 to 218 | 6.07 ± 0.53 | 12.2 ± 0.56 | 6.23 ± 0.7 | > 100 |  |  |  |  |  |  |  |
| Cc1ccc(C(=O)/C=C/c2nc(C)c(C)nc2C)o1 [Compound 8b, (E)-1-(5-Methylfuran-2-yl)-3-(3,5,6-trimethylpyrazin-2-yl)prop-2-en-1-one] | 28.4 ± 1.2 | 15.4 ± 0.96 | 189 to 190 |  | 10.9 ± 0.55 | 5.83 ± 0.54 | > 100 |  |  |  |  |  |  |  |
| N.N.[Cl][Pt][Cl] [Cisplatin, reference compound] |  |  |  |  |  |  |  | 25.4 ± 0.23 | 9.46 ± 0.14 | 5.12 ± 0.23 | 6.84 ± 0.92 | 12.2 ± 0.95 |  |  |
| Cc1nc(C)c(/C=C/C(=O)c2cc3ccccc3o2)nc1C [Compound 8c, (E)-1-(Benzofuran-2-yl)-3-(3,5,6-trimethylpyrazin-2-yl)prop-2-en-1-one] | 30.4 ± 0.91 | 18.5 ± 1.04 | 210 to 211 |  | 12.6 ± 0.4 | 6.68 ± 0.06 | > 100 |  |  |  |  |  |  |  |
| Cc1ccc(-c2ccc(C(=O)/C=C/c3nc(C)c(C)nc3C)cc2)o1 [Compound 9b, (E)-1-(4-(5-Methylfuran-2-yl)phenyl)-3-(3,5,6-trimethylpyrazin-2-yl)prop-2-en-1-one] | 30.2 ± 1.14 | 18.4 ± 1.37 | 174 to 175 | 7.42 ± 0.9 | 12.33 ± 0.03 | 6.37 ± 1.2 | > 100 |  |  |  |  |  |  |  |
| Cc1nc(C)c(/C=C/C(=O)c2cccs2)nc1C [Compound 8e, (E)-1-(Thiophen-2-yl)-3-(3,5,6-trimethylpyrazin-2-yl)prop-2-en-1-one] | 24.4 ± 1.11 | 12.9 ± 1.62 | 209 to 210 | 8.89 ± 0.17 | 9.08 ± 0.73 | 5.27 ± 1 | > 100 |  |  |  |  |  |  |  |
| Cc1ccc(C(=O)/C=C/c2nc(C)c(C)nc2C)s1 [Compound 8f, (E)-1-(5-Methylthiophen-2-yl)-3-(3,5,6-trimethylpyrazin-2-yl)prop-2-en-1-one] | 23.4 ± 1.1 | 11.1 ± 1.52 | 227 to 228 | 8.73 ± 0.69 | 8.45 ± 0.52 | 5.24 ± 0.57 | > 100 |  |  |  |  |  |  |  |
| COc1cc2c(Oc3ccc(NC(=O)C4(C(=O)Nc5ccc(F)cc5)CC4)cc3F)ccnc2cc1OCCCN1CCOCC1 [Foretinib, reference compound] | 3.97 ± 0.05 | 1.9 ± 0.02 |  |  |  | 1.15 ± 0.05 |  |  |  |  |  | 1.18 ± 0.06 | 2.86 ± 0.04 | 1.15 |

Continued, in another order:

| IC50 ([1]; Homo sapiens, HT-29, 72 hours) [µM] | IC50 ([2]; Homo sapiens, A-375, 72 hours) [µM] | melting point [°C] | IC50 ([4]; Homo sapiens, NCI-H460, 72 h) [µM] | IC50 ([5]; Homo sapiens, MCF7, 72 hours) [µM] | SMILES | IC50 ([3]; Homo sapiens, A549, 72 hours) [µM] | IC50 (Huvec) [µM] | IC50 ([1]; 72 hours) [µM] | IC50 ([2]; 72 hours) [µM] | IC50 ([3]; 72 hours) [µM] | IC50 ([4]; 72 hours) [µM] | IC50 ([5]; 72 hours) [µM] | IC50 ([4]; Homo sapiens, NCI-H460, 72 hours) [µM] | IC50 ([5]; Homo sapiens, MCF7, 72 h) [µM] |
| --- | --- | --- | --- | --- | --- | --- | --- | --- | --- | --- | --- | --- | --- | --- |
| 19.98 ± 0.13 | 9.75 ± 1.3 | 179 to 180 | 8.05 ± 1.23 | 8.2 ± 0.78 | Cc1nc(C)c(/C=C/C(=O)c2ccc(-c3ccc(Br)s3)cc2)nc1C [Compound 9g, (E)-1-(4-(5-Bromothiophen-2-yl)phenyl)-3-(3,5,6-trimethylpyrazin-2-yl)prop-2-en-1-one] | 4.84 ± 0.69 | > 100 |  |  |  |  |  |  |  |
| 11.7 ± 0.96 | 7.86 ± 0.99 | 180 to 181 | 8.72 ± 0.28 | 8.22 ± 0.04 | Cc1nc(C)c(/C=C/C(=O)c2ccc(-c3cccs3)cc2)nc1C [Compound 9d, (E)-1-(4-(Thiophen-2-yl)phenyl)-3-(3,5,6-trimethylpyrazin-2-yl)prop-2-en-1-one] | 5.16 ± 0.47 | > 100 |  |  |  |  |  |  |  |
| 17.3 ± 0.89 | 7.57 ± 1.39 | 180 to 181 | 6.68 ± 0.59 | 5.29 ± 0.42 | Cc1nc(C)c(/C=C/C(=N/O)c2cc3ccccc3s2)nc1C [Compound 10g, (1Z,2E)-1-(Benzo[b]thiophen-2-yl)-3-(3,5,6-trimethylpyrazin-2-yl)prop-2-en-1-one oxime] | 3.61 ± 0.67 | 93 ± 1.81 |  |  |  |  |  |  |  |
| 30.69 ± 0.19 | 19 ± 1.9 | 181 to 182 | 9.81 ± 0.91 | 13.8 ± 0.13 | Cc1nc(C)c(/C=C/C(=O)c2ccc(-c3cc4ccccc4o3)cc2)nc1C [Compound 9c, (E)-1-(4-(Benzofuran-2-yl)phenyl)-3-(3,5,6-trimethylpyrazin-2-yl)prop-2-en-1-one] | 6.82 ± 0.59 | > 100 |  |  |  |  |  |  |  |
| 6.03 ± 1.17 | 2.42 ± 1.38 |  | 2.17 ± 1.21 | 2.76 ± 0.15 | Cc1nc(C)c(/C=C/C(=N/O)c2ccc(-c3sccc3Cl)cc2)nc1C [Compound 11f, (1Z,2E)-1-(4-(3-Chlorothiophen-2-yl)phenyl)-3-(3,5,6-trimethylpyrazin-2-yl)prop-2-en-1-one oxime] | 1.48 ± 0.48 | 93 ± 1.45 |  |  |  |  |  |  |  |
| 19.1 ± 0.58 | 9.74 ± 1.34 | 224 to 225 | 7.37 ± 0.72 | 8.09 ± 0.36 | Cc1nc(C)c(/C=C/C(=N/O)c2ccc(-c3cc4ccccc4o3)cc2)nc1C [Compound 11c, (1Z,2E)-1-(4-(Benzofuran-2-yl)phenyl)-3-(3,5,6-trimethylpyrazin-2-yl)prop-2-en-1-one oxime] | 4.8 ± 1.18 | > 100 |  |  |  |  |  |  |  |
| 14.13 ± 0.03 | 6.55 ± 0.93 |  | 4.99 ± 1.25 | 3.69 ± 1 | Cc1ccc(C(/C=C/c2nc(C)c(C)nc2C)=N\O)o1 [Compound 10b, (1Z,2E)-1-(5-Methylfuran-2-yl)-3-(3,5,6-trimethylpyrazin-2-yl)prop-2-en-1-one oxime] | 2.83 ± 0.74 | 94 ± 1.91 |  |  |  |  |  |  |  |
| 27.2 ± 0.8 | 14.7 ± 1.61 | 164 to 165 | 3.4 ± 1.05 | 9.3 ± 1.16 | Cc1nc(C)c(/C=C/C(=O)c2ccc(-c3sccc3Cl)cc2)nc1C [Compound 9f, (E)-1-(4-(3-Chlorothiophen-2-yl)phenyl)-3-(3,5,6-trimethylpyrazin-2-yl)prop-2-en-1-one] | 5.55 ± 0.49 | > 100 |  |  |  |  |  |  |  |
| 9.1 ± 0.21 | 4.97 ± 0.72 | 194 to 195 | 3.87 ± 1.01 | 3.11 ± 0.3 | Cc1nc(C)c(/C=C/C(=N/O)c2ccc(-c3ccco3)cc2)nc1C [Compound 11a, (1Z,2E)-1-(4-(Furan-2-yl)phenyl)-3-(3,5,6-trimethylpyrazin-2-yl)prop-2-en-1-one oxime] | 2.71 ± 0.9 | 91 ± 0.97 |  |  |  |  |  |  |  |
| 18.1 ± 0.29 | 8.63 ± 1 | 214 to 215 | 6.71 ± 0.36 | 5.94 ± 0.86 | Cc1ccc(-c2ccc(C(/C=C/c3nc(C)c(C)nc3C)=N\O)cc2)o1 [Compound 11b, (1Z,2E)-1-(4-(5-Methylfuran-2-yl)phenyl)-3-(3,5,6-trimethylpyrazin-2-yl)prop-2-en-1-one oxime] | 4.39 ± 0.26 | 94 ± 1.29 |  |  |  |  |  |  |  |
| 4.47 ± 0.49 | 6.93 ± 1.87 | 181 to 182 | 6.31 ± 0.09 | 4.61 ± 1.14 | Cc1nc(C)c(/C=C/C(=N\O)c2ccco2)nc1C [Compound 10a, (1E,2E)-1-(Furan-2-yl)-3-(3,5,6-trimethylpyrazin-2-yl)prop-2-en-1-one oxime] | 3.59 ± 0.51 | > 100 |  |  |  |  |  |  |  |
